Source: patent US11800874B2, “Composition comprising a selective herbicide and an algal extract, use of an algal extract for detoxifying plants subjected to treatment with a selective herbicide” (LABORATOIRES GOËMAR, priority 2014, dated 2023)
Where two headings read alike, the source gives them in different places.

Experiments:
[1] = test system: Conventional soybean; conditions: in vivo
Excerpt: (§1) Conventional soybean (that is to say not genetically modified and therefore not resistant to glyphosate) was planted in a greenhouse and left to grow until the 5-leaf stage.
(§2) A control batch was also cultivated, onto which water was sprayed.

[2] = test system: Conventional soybean; conditions: in vivo; remark: listed apart in the source
Excerpt: as §1, §2

[3] = test system: Glyphosate-resistant soybean; experiment: Phytotoxicity of spray treatments on glyphosate-resistant soybean (Example 1); conditions: 4 weeks after treatment
Excerpt: Glyphosate-resistant soybean was planted in a greenhouse and left to grow until the 5-leaf stage. It was separated into different batches, which were each treated by spraying with the following different compositions:
as §2

Manganese-EDTA complex [Mn]
0%: Necrosed surface area [1] | Plants having a necrosed leaf [1] | Necrosed surface area [2] | Plants having a necrosed leaf [2] | Necrosed surface area ([3]; sprayed composition 0.25% w/v) | Plants having a necrosed leaf ([3]; sprayed composition 0.25% w/v) | Necrosed surface area ([3]; sprayed composition 0.5% w/v) | Plants having a necrosed leaf ([3]; sprayed composition 0.5% w/v)
